In assay [1] the target is T1, Coagulation factor X (Homo sapiens, UniProt P00742). The assay can be described thus: Second-order rate constant of factor Xa inhibition.
The target of assay [2] is T1, Coagulation factor X. The assay can be described thus: Inhibitory activity against Plasma coagulation enzyme factor Xa; Value expressed as k Act/k UNCAT (uncatalyzed). Format: cell-free.
The target of assay [3] is T1, Coagulation factor X. The assay can be described thus: Equilibrium dissociation constant of factor Xa inhibition.

As a reminder, the Kd is a measure of binding affinity in units of concentration.

T1 sequence (P00742 41-179 limits assumed): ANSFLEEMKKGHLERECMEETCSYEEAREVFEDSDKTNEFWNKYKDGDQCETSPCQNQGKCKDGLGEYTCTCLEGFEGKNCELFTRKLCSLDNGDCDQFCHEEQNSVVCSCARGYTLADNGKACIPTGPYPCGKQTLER
T1 sequence (P00742 235-488 limits assumed): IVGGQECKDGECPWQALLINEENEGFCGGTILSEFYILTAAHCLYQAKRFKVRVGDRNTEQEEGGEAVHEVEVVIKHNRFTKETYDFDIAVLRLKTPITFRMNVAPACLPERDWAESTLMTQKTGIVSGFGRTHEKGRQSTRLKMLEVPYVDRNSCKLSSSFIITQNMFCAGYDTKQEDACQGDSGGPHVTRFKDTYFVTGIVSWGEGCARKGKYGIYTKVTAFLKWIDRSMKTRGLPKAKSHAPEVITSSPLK

Regarding `O=S(=O)(O)Oc1cc2c(c(OS(=O)(=O)O)c1)C[C@@H](OS(=O)(=O)O)[C@H](c1ccc(OS(=O)(=O)O)c(OS(=O)(=O)O)c1)O2`, the k act in assay [1] worked out at 6750 M⁻¹ s⁻¹. In addition, in assay [2], the Acceleration was 20.8. In assay [3], this molecule showed a dissociation constant (Kd) of 3.5 µM.

As to `CO[C@@H]1O[C@@H](C(=O)O)[C@@H](O[C@H]2OC(COS(=O)(=O)O)=C[C@H](OS(=O)(=O)O)[C@H]2NS(=O)(=O)O)[C@H](O)[C@H]1OS(=O)(=O)O`, the k act in assay [1] was determined as 6400 M⁻¹ s⁻¹. For the same molecule, the Acceleration in assay [2] is 19.7. In addition, in assay [3], the equilibrium dissociation constant (Kd) came to 95 µM.

The molecule `O=c1c(OS(=O)(=O)O)c(-c2ccc(OS(=O)(=O)O)cc2OS(=O)(=O)O)oc2cc(OS(=O)(=O)O)cc(OS(=O)(=O)O)c12` came in with a k act in assay [1] of 7100 M⁻¹ s⁻¹. In assay [2], this molecule came in with an Acceleration of 21.8. In assay [3], this molecule returned a Kd of 1.8 µM.

For `O=c1c(OS(=O)(=O)O)c(-c2ccc(OS(=O)(=O)O)c(OS(=O)(=O)O)c2)oc2cc(OS(=O)(=O)O)cc(OS(=O)(=O)O)c12`, the k act in assay [1] turned out to be 5700 M⁻¹ s⁻¹. In assay [2], this molecule came in with an Acceleration of 17.5. Moreover, the Kd in assay [3] is 17 µM.

In assay [1], `CO[C@H]1O[C@H](COS(=O)(=O)O)[C@@H](O[C@@H]2O[C@H](C(=O)O)[C@@H](O[C@H]3O[C@H](COS(=O)(=O)O)[C@@H](O)[C@H](O)[C@H]3NS(=O)(=O)O)[C@H](O)[C@H]2O)[C@H](OS(=O)(=O)O)[C@H]1NS(=O)(=O)O` displayed a k act of 45000 M⁻¹ s⁻¹. This molecule returned an Acceleration in assay [2] of 320. This molecule displayed a dissociation constant (Kd) in assay [3] of 2 µM.

In the case of `O=S(=O)(O)Oc1cc2c(c(OS(=O)(=O)O)c1)C[C@H](OS(=O)(=O)O)[C@H](c1ccc(OS(=O)(=O)O)c(OS(=O)(=O)O)c1)O2`, in assay [1], the k act came out at 3380 M⁻¹ s⁻¹. In addition, the Acceleration in assay [2] was determined as 10.4. The dissociation constant (Kd) in assay [3] was 10.7 µM.

Regarding `O=S(=O)(O)Oc1cc2c(c(OS(=O)(=O)O)c1)CC(OS(=O)(=O)O)C(c1ccc(OS(=O)(=O)O)c(OS(=O)(=O)O)c1)O2` (stereo unspecified), the k act in assay [1] is 2770 M⁻¹ s⁻¹. This molecule also displayed an Acceleration in assay [2] of 8.5. In assay [3], this molecule registered a dissociation constant Kd of 26.1 µM.

Values taken from ChEMBL document CHEMBL1136588, “Exploring new non-sugar sulfated molecules as activators of antithrombin” (Bioorg Med Chem Lett, 2003).
